In publication PMC9144902, “Metal(II) Complexes of the Fluoroquinolone Fleroxacin: Synthesis, Characterization and Biological Profile” (Pharmaceutics, 2022):

Key:
[1] = molecular target: T1, bovine serum albumin (BSA) (Bos taurus, UniProt P02769); test: Albumin binding by tryptophan fluorescence emission quenching; settings: for K(BSA), BSA-binding constant / kq(BSA), BSA-quenching constant: BSA 3 μM; for K(BSA), BSA-binding constant: buffer pH 7.0, Scatchard equation; for kq(BSA), BSA-quenching constant: buffer pH 7.0, λexc 295 nm, Stern–Volmer, τ0 = 10^–8 s; for BSA fluorescence, % of the initial fluorescence intensity (I/Io): λem,max = 342 nm, final value of titration (Figure S11)
T1 construct: purchased
Method in brief: (§1)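 Compound binding to serum albumin monitored by quenching of albumin tryptophan fluorescence emission. Quenching constants (kq) derived from Stern–Volmer equation; binding constants (K) from Scatchard equation.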

[2] = molecular target: T2, human serum albumin (HSA) (Homo sapiens, UniProt P02768); test: as above; settings: for K(HSA), HSA-binding constant / kq(HSA), HSA-quenching constant: HSA 3 μM; for K(HSA), HSA-binding constant: buffer pH 7.0, Scatchard equation; for kq(HSA), HSA-quenching constant: buffer pH 7.0, λexc 295 nm, Stern–Volmer, τ0 = 10^–8 s; for HSA fluorescence, % of the initial fluorescence intensity (I/Io): λem,max = 351 nm, final value of titration (Figure S10)
T2 construct: purchased
Method in brief: as §1

CT DNA = test: Study of the DNA-interaction by cyclic voltammetry; assay type: binding, calf; settings: for Epa(f), anodic potential / Epc(f), cathodic potential / Epa(b), anodic potential / Epc(b), cathodic potential: M(II)/M(I), 1:2 DMSO/buffer; for Epa(f), anodic potential / Epc(f), cathodic potential: absence of CT DNA; for Epa(b), anodic potential / Epc(b), cathodic potential: presence of CT DNA; for Kr/Kox, ratio of equilibrium DNA-binding constants (reduced/oxidized form): eq. S6
Description: Cyclic voltammetry was used to study the interaction of the complexes with CT DNA. An intercalative interaction will induce a positive shift for the electrochemical potential(s) of metal oxidation/reduction, whereas, in the case of electrostatic interaction, a negative shift in the potential(s) may occur. The cyclic voltammograms of the complexes in a 1:2 DMSO:buffer solution (0.33 mM) were recorded in the absence and presence of the CT DNA solution (Figure S13). The predominant electrochemical feature for all complexes is a positive shift in the potential in the presence of CT DNA (ΔEpc/a = (–30)–(+127) mV). Consequently, the intercalative nature of the interaction of the complexes with DNA can be inferred from the presented data.
In order to evaluate further the redox behavior of the complexes, the corresponding equilibrium constants were calculated by determining the ratio Kr/Kox in accordance to Equation (S6), where Kox and Kr are the DNA-binding constants for the oxidized and reduced form, respectively, of the metal ions. For all complexes, the Kr/Kox ratio is close to or above 1 (Table 7), showing the selective binding of DNA to the […] form of the complexes. […]
S3.3 Study of the DNA –interaction by cyclic vol ta mmetry
Cyclic voltammetr y can be also used in order to calculate the corresponding equilibrium constant for the redox process. The ratio of the DNA–binding constants for the reduced (K r) and oxidized forms (Kox) of t he complex es (Kr/Kox) w as calculat ed according t o eq. S6:
Δ = = 0.059 × lo gEE E K oxoo o (eq. S6) […]
where Eo and Eo are the formal potentials of M(II)/M(I) redox couple in the fully bound and […]
free complexes, respectivel y. Kox and Kr are the binding constants for the binding of the oxidized and reduced species to DNA, respectivel y [S8] . […]

EB–DNA adduct (CT DNA) = test: Competitive study with EB (EB–DNA fluorescence quenching); assay type: binding, calf; settings: for Ksv, Stern–Volmer constant: EB–DNA adduct; for ΔI/Io, percentage of EB–DNA fluorescence quenching: [EB] = 20 μM, [DNA] = 26 μM, λexc 540 nm, λem 592 nm; for EB–DNA relative fluorescence emission intensity, % of the initial (I/Io): λemission = 592 nm, final value (up to), Figure S14; for kq, EB–DNA quenching constant: τo = 23 ns

T2 sequence (P02768 25-609): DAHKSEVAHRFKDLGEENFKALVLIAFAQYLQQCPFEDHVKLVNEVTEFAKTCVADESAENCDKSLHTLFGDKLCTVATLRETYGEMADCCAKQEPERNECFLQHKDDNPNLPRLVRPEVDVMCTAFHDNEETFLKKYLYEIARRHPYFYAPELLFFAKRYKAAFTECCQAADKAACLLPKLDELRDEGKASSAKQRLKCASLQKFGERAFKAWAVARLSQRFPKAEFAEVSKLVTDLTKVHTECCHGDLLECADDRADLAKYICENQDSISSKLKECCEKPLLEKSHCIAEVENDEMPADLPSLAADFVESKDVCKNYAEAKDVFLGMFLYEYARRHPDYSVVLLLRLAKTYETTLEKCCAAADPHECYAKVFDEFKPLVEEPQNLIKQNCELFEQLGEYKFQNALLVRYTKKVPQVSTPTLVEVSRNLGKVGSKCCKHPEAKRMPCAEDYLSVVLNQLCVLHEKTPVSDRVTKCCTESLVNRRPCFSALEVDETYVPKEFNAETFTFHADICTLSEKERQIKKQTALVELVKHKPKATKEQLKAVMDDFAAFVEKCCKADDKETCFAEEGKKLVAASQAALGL
T1 sequence (P02769 25-607): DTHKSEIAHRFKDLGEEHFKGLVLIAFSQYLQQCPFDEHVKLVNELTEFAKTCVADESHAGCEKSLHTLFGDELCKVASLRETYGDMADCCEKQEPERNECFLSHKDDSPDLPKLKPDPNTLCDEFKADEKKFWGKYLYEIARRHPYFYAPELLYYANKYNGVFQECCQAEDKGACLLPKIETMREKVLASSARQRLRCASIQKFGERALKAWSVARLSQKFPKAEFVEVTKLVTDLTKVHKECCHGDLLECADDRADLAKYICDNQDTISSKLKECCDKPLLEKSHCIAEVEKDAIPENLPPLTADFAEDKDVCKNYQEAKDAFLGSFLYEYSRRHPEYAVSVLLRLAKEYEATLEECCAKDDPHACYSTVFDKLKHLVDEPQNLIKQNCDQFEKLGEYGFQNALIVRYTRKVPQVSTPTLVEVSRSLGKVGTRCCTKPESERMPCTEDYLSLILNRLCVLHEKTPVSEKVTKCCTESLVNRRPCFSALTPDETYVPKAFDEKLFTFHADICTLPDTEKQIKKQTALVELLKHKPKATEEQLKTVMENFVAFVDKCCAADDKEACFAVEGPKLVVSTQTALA

SMILES | K(BSA), BSA-binding constant [1] | kq(BSA), BSA-quenching constant [1] | BSA fluorescence, % of the initial fluorescence intensity (I/Io) [1] [%] | K(HSA), HSA-binding constant [2] | kq(HSA), HSA-quenching constant [2] | HSA fluorescence, % of the initial fluorescence intensity (I/Io) [2] [%] | Epa(f), anodic potential (CT DNA) [mV] | Epc(f), cathodic potential (CT DNA) [mV] | Epa(b), anodic potential (CT DNA) [mV] | Epc(b), cathodic potential (CT DNA) [mV] | Kr/Kox, ratio of equilibrium DNA-binding constants (reduced/oxidized form) (CT DNA) | Ksv, Stern–Volmer constant (EB–DNA adduct (CT DNA)) | ΔI/Io, percentage of EB–DNA fluorescence quenching (EB–DNA adduct (CT DNA)) [%] | EB–DNA relative fluorescence emission intensity, % of the initial (I/Io) (EB–DNA adduct (CT DNA)) [%] | kq, EB–DNA quenching constant (EB–DNA adduct (CT DNA))
CN1CCN(c2c(F)cc3c(=O)c(C(=O)[O-])cn(CCF)c3c2F)CC1.[Cl-].[Cu+2].c1ccc(-c2ccccn2)nc1 [complex 6, [Cu(flrx)(bipy)Cl]] | 6.12(±0.33) × 10^4 M^−1 | 1.59(±0.07) × 10^13 M^−1s^−1 | 25.7 | 1.02(±0.03) × 10^5 M^−1 | 6.08(±0.06) × 10^12 M^−1s^−1 | 48.5 | −450 | −710 | −323 | −740 | 2.28 | 2.03(±0.05) × 10^5 M^–1 | 61.9 | 38.1 | 8.84(±0.21) × 10^12 M^−1s^−1
CN1CCN(c2c(F)cc3c(=O)c(C(=O)[O-])cn(CCF)c3c2F)CC1.[Cl-].[Cu+2].c1ccc(Nc2ccccn2)nc1 [complex 7, [Cu(flrx)(bipyam)Cl]] | 1.26(±0.05)×10^5 M^−1 | 1.56(±0.04) × 10^13 M^−1s^−1 | 26.6 | 1.31(±0.05) × 10^5 M^−1 | 5.57(±0.18) × 10^12 M^−1s^−1 | 49.3 | −426 | −729 | −300 | −710 | 3.41 | 3.44(±0.06) × 10^5 M^–1 | 62.7 | 37.3 | 1.50(±0.03) × 10^13 M^−1s^−1
CN1CCN(c2c(F)cc3c(=O)c(C(=O)[O-])cn(CCF)c3c2F)CC1.[Cl-].[Cu+2].c1cnc2c(c1)ccc1cccnc12 [complex 8, [Cu(flrx)(phen)Cl]] | 5.03(±0.22) × 10^4 M^−1 | 1.04(±0.03) × 10^13 M^−1s^−1 | 34.4 | 3.45(±0.14) × 10^4 M^−1 | 4.08(±0.13) × 10^12 M^−1s^−1 | 56.5 | −483 | −725 | −406 | −720 | 2.00 | 3.25(±0.08) × 10^5 M^–1 | 66.4 | 33.6 | 1.41(±0.03) × 10^13 M^−1s^−1
CN1CCN(c2c(F)cc3c(=O)c(C(=O)[O-])cn(CCF)c3c2F)CC1.CN1CCN(c2c(F)cc3c(=O)c(C(=O)[O-])cn(CCF)c3c2F)CC1.[Mn+2].c1ccc(-c2ccccn2)nc1 [complex 9, [Mn(flrx)2(bipy)]] | 1.39(±0.05) × 10^5 M^−1 | 2.45(±0.09) × 10^13 M^−1s^−1 | 18.0 | 6.36(±0.31) × 10^4 M^−1 | 8.09(±0.17) × 10^12 M^−1s^−1 | 39.8 | −475 | −701 | −495 | −684 | 0.97 | 3.31(±0.07) × 10^5 M^–1 | 73.8 | 26.2 | 1.44(±0.03) × 10^13 M^−1s^−1
